{
  "source": "patent US11440939B2",
  "about": "“Anticancer peptides” (IDP DISCOVERY PHARMA, S.L., priority 2017, dated 2022)",
  "key": {"MCF-7": {"tested_on": "MCF-7", "format": "cell-based", "method": "MCF-7, epithelial (breast cancer), ECACC: 86012803;\n(§1) Cell line MCF-7 was cultured in incubator under CO2 (6%) at 37° C. in DMEM high glucose (Dulbecco's Modified Eagle Solution, Gibco-BRL 31966-21) medium with 10% fetal bovine serum inactivated (FBS) (Gibco-BRL 10106-169). Cell lines HL-60, NCI-H524, NCI-H526, NCI-H69, NCI-H82, NCI-H187 and H5B were cultured in an incubator at 37° C. in RPMI-1640 (Sigma R8758) medium with 10% of fetal bovine serum inactivated (FBS) and 2 mM glutamine (Sigma G7513). Cell line NCI-H510A was cultured in incubator in F12K medium with 10% of fetal bovine serum inactivated (FBS). […]\n(§2) During the amplification step and the assays, adherent cells were rinsed with DPBS (Dulbecco's Phosphate Buffered Saline, Sigma D1283) three times and afterward treated for 5 minutes with trypsin ([…]) (Gibco-BRL, 15400054) in solution of DPBS at 37° C., and, once detached, transferred in the culturing medium. […] Cells were counted in a Neubauer chamber after labelling with Tripan-Blue. […]\n(§3) Cells were incubated during 72 h in incubator under CO2 atmosphere at 37° C. Cell viability was measured by means of MTT (3-(4,5-dimethylthiazol-2-yl)-2,5-diphenyltetrazolium bromide) assay, Alamar Blue® (Biosource DAL1100) and Hexosaminidase activity test, consecutively, following manufacturer instructions.\n(§4) MTT: 1. […] Absorbance at 570 nm was finally measured. […]"}, "HL-60": {"tested_on": "HL-60", "format": "cell-based", "method": "HL-60, promyeloblast (acute myelocytic leukemia, AML), ECACC: 98070106;\nas §1, §2, §3, §4"}, "GBM-18": {"tested_on": "GBM-18", "format": "cell-based", "method": "GMB-18, epithelial (glioblastoma, GMB), from surgical specimens from patients;\nas §1\n(§5) During the amplification step and the assays, adherent cells were rinsed with DPBS (Dulbecco's Phosphate Buffered Saline, Sigma D1283) three times and afterward treated for 5 minutes with trypsin ([…]) (Gibco-BRL, 15400054) in solution of DPBS at 37° C., and, once detached, transferred in the culturing medium. […] Cells were counted in a Neubauer chamber after labelling with Tripan-Blue.\nas §3, with “instructions. […]” for “instructions.”"}, "NCI-H187": {"tested_on": "NCI-H187", "format": "cell-based", "details": "72 h", "method": "NCI-H187, epithelial (small cell lung cancer, SCLC), ATCC-CRL-5804;\n(§6) Cell line MCF-7 was cultured in incubator under CO2 (6%) at 37° C. in DMEM high glucose (Dulbecco's Modified Eagle Solution, Gibco-BRL 31966-21) medium with 10% fetal bovine serum inactivated (FBS) (Gibco-BRL 10106-169). Cell lines HL-60, NCI-H524, NCI-H526, NCI-H69, NCI-H82, NCI-H187 and H5B were cultured in an incubator at 37° C. in RPMI-1640 (Sigma R8758) medium with 10% of fetal bovine serum inactivated (FBS) and 2 mM glutamine (Sigma G7513). Cell line NCI-H510A was cultured in incubator in F12K medium with 10% of fetal bovine serum inactivated (FBS). Cell line GBM-18 and GBM-27 were cultured in incubator under CO2 (6%) at 37° C. in complete medium (Neurobasal+B27+Glutamax+Growth factors).\n(§7) During the amplification step and the assays, adherent cells were rinsed with DPBS (Dulbecco's Phosphate Buffered Saline, Sigma D1283) three times and afterward treated for 5 minutes with trypsin ([…]) (Gibco-BRL, 15400054) in solution of DPBS at 37° C., and, once detached, transferred in the culturing medium. No-adherent cells were centrifuged and transferred in the culturing medium. Cells were counted in a Neubauer chamber after labelling with Tripan-Blue.\nMCF-7, NCI-H187, NCI-H69, NCI-H526 and H5B cells were seeded at a density of 5000 cells/well; NCI-H524 and NCI-H82 were seeded at a density of 2500 cells/well; HL-60 and NCI-H510A at 10000 cells/well in 100 μl of medium in 96 well plates. After 24 h, the compounds to be tested were added to calculate the dose/response curve at the starting concentration of 100 μM with serial dilutions (1:1). Controls were the untreated cells. Each experiment was performed in triplicate.\nas §3\nMTT: 1. Stock solution of MTT (475989 Calbiochem) was 5 mg/ml in PBS 1×. As negative control (experiment noise) 3 wells were treated with 20 μl/well of a solution of SDS 10% in H2O. The same control was used for Alamar Blue/Hexosaminidase. 10 μl/well of MTT solution were added and the plate was incubated for 3-4 hr. The medium was discarded and 100 μl of extracting buffer (PBS 1×, 15% SDS, 50% […] N,N-Dimethylformamide, pH 4,7) were added to each well. Plates were incubated for 16 h at room temperature under orbital shaking. Absorbance at 570 nm was finally measured.\n(§8) Alamar Blue: 10 μl Alamar Blue solution was added to each well and the plates were incubated for […] in the incubator. Fluorescence ratio at 535/590 (excitation/emission) was measured in Cytofluor (Millipore) fluorimeter. Blank control was determined by lysis of untreated cells with con 2% of Triton X100, right before adding Alamar Blue solution.\nHexosaminidase activity test: after Alamar Blue lecture, medium was discarded and plates were rinsed once with PBS. 60 μl hexosaminidase substrate (p-nitrophenol-N-acetyl-beta-D-glucosamide 7.5 mM [Sigma N-9376], sodium citrate 0.1 M, pH 5.0, 0.25% Triton X-100) was added to each well and the plates were incubated at 37° C. for 2-5 h, according to the cell type (hexosaminidase activity changes according to the cell type). […] Blank control was the same as described before.\nData analysis was performed calculating the percentage of cell viability normalized vs. the values of negative control, which was considered equal to 100%. The dose/response curve was fitted through the sigmoidal equation dose-response (variable slope) and the EC50 values were calculated as follow: Y=Bottom+(Top−Bottom)/(1+10^{[(Log EC50−X)*HillSlope]},"}, "[1]": {"assay": "Stability test in human plasma, LC MS/MS", "format": "in vitro ADME", "details": "37° C.", "method": "For the preparation of stock solutions, H14 was dissolved in water/acetonitrile (95/5, v/v) containing 0.1% formic acid to a concentration of 1.00 mg/mL. Further serial dilutions were carried out in plasma. The concentrations were calculated under consideration of purity.\nFor preparation of plasma samples, the human blank plasma were fortified with the stock solution using a ratio of 1:100 to obtain a sample with 10.0 μg/mL which was subsequently serial-diluted in human blank plasma.\nA volume of 300 μL of human plasma samples for the two peptide concentrations (100 ng/mL and 1000 ng/mL) were transferred to an empty 96 deep well plate. The plate was incubated at 37° C. in a thermomixer at approximately 700 rpm. At selected incubation time points of 0 h, 1 h, 2 h, 4 h, 6 h and 24 h, aliquots of plasma were precipitated with acetonitrile containing internal standard. To an aliquot of 20 μL human plasma samples, 40 μL of acetonitrile containing 1% formic acid and the internal standard was added. After vortex mixing for a few seconds, the samples were centrifuged for about 10 minutes at approximately 50000 g. The temperature of the centrifuge was set to 8° C. An aliquot of 30 μL of the supernatant was transferred to an autosampler vial for analysis using LC MS/MS.\nThe quantification of H14 was performed by column separation with reverse phase chromatography followed by detection with triple stage quadrupole MS/MS in the selected reaction monitoring mode."}, "GBM-27": {"tested_on": "GBM-27", "format": "cell-based", "method": "GMB-27, epithelial (glioblastoma, GMB), from surgical specimens from patients;\nas §1, §5\nas §3, with “instructions. […]” for “instructions.”"}, "NCI-H524": {"tested_on": "NCI-H524", "format": "cell-based", "details": "72 h", "method": "NCI-H524, lung (small cell lung cancer, SCLC), ATCC-CRL-5831;\nas §6\nas §7, with “Tripan-Blue. […]” for “Tripan-Blue.”\nas §3\nMTT: 1. […] Absorbance at 570 nm was finally measured.\nas §8, with “solution. […]” for “solution.”"}},
  "note": "Numbered stars: 1 amine (or outer) side, 2 acyl side, 3 side chain; on linkers, the order of the positions; unused ones are H or OH. Bridge positions count the residues as written; N and C are the ends. Square brackets hold non-standard residues; d marks the D form. Peptide text beside a SMILES is read from it. ξ: configuration not given here. ξαMeNle(6-ylidene) = CC(CCCC=[*:3])(N[*:1])C(=O)[*:2]; X1 = CC(CCCCCCC=[*:3])(N[*:1])C(=O)[*:2]",
  "data": [
    {"compound": "CC(C)C[C@H](NC(=O)[C@H](CCCCN)NC(=O)[C@@H](NC(=O)[C@@H](N)CCCNC(=N)N)C(C)C)C(=O)N[C@H](C(=O)N[C@@H](CC(N)=O)C(=O)N[C@@H](CC(C)C)C(=O)NC1(C)CCCCCCC=CCCCC(C)(C(=O)N[C@H](C(=O)N2CCC[C@H]2C(N)=O)C(C)C)NC(=O)[C@H](CCC(=O)O)NC(=O)[C@H](CCCNC(=N)N)NC(=O)[C@H](CC(C)C)NC(=O)[C@H]([C@@H](C)O)NC(=O)[C@H](C)NC(=O)[C@H](Cc2ccccc2)NC1=O)C(C)C", "note": "(stereo partly drawn) [H14] (H-RVKLVNL[X1]FATLRE[ξαMeNle(6-ylidene)]VP-NH2; staple 8-15; N-terminus and C-terminus assumed)", "values": [
      {"measurement": "EC50", "setting": "MCF-7", "value": "~9", "unit": "µM"},
      {"measurement": "EC50", "setting": "HL-60", "value": "~14", "unit": "µM"},
      {"measurement": "EC50", "setting": "GBM-18", "value": "~4", "unit": "µM"},
      {"measurement": "EC50", "setting": "NCI-H187", "value": "~10", "unit": "µM"},
      {"measurement": "H14 amount (% peak area)", "setting": "[1]; 100 ng/mL, 0 h", "value": 100, "unit": "% peak area"},
      {"measurement": "remaining at 1 h, 100 ng/mL", "setting": "[1]; 100 ng/mL, 1 h, read-out: H14 amount (% peak area)", "value": 96.1, "unit": "%"},
      {"measurement": "H14 amount (% peak area)", "setting": "[1]; 100 ng/mL, 2 h", "value": 96.1, "unit": "% peak area"},
      {"measurement": "remaining at 4 h, 100 ng/mL", "setting": "[1]; 100 ng/mL, 4 h, read-out: H14 amount (% peak area)", "value": 102, "unit": "%"},
      {"measurement": "remaining at 6 h, 100 ng/mL", "setting": "[1]; 100 ng/mL, 6 h, read-out: H14 amount (% peak area)", "value": 97.2, "unit": "%"},
      {"measurement": "remaining at 24 h, 100 ng/mL", "setting": "[1]; 100 ng/mL, 24 h, read-out: H14 amount (% peak area)", "value": 108, "unit": "%"},
      {"measurement": "H14 amount (% peak area)", "setting": "[1]; 1000 ng/mL, 0 h", "value": 100, "unit": "% peak area"},
      {"measurement": "remaining at 1 h, 1000 ng/mL", "setting": "[1]; 1000 ng/mL, 1 h, read-out: H14 amount (% peak area)", "value": 101, "unit": "%"},
      {"measurement": "remaining at 2 h, 1000 ng/mL", "setting": "[1]; 1000 ng/mL, 2 h, read-out: H14 amount (% peak area)", "value": 94.9, "unit": "%"},
      {"measurement": "remaining at 4 h, 1000 ng/mL", "setting": "[1]; 1000 ng/mL, 4 h, read-out: H14 amount (% peak area)", "value": 95.4, "unit": "%"},
      {"measurement": "remaining at 6 h, 1000 ng/mL", "setting": "[1]; 1000 ng/mL, 6 h, read-out: H14 amount (% peak area)", "value": 99.9, "unit": "%"},
      {"measurement": "remaining at 24 h, 1000 ng/mL", "setting": "[1]; 1000 ng/mL, 24 h, read-out: H14 amount (% peak area)", "value": 101, "unit": "%"},
      {"measurement": "EC50", "setting": "GBM-27", "value": "~5", "unit": "µM"},
      {"measurement": "EC50", "setting": "NCI-H524", "value": "~12.5", "unit": "µM"}
    ]}
  ]
}
